Marks after values point to notes of the source that are not given here.
How the values were obtained:
CYP2D6 = details: read-out: IC50 for CYP2D6; human microsomes; cited from earlier work
CYP3A [1] = test: Hepatic microsomal MDZH activity after oral administration for five days; details: five consecutive days, P≤0.05
[2] = ref Food Safety Commission of Japan; cited from earlier work
cytochrome P450 = details: five days; for Effect of oral treatment on total CYP content: decrease seen at high dose, P≤0.05; for Total cytochrome content, High dose / Total cytochrome content, Low dose: male SD rats, oral, mean ± SD (n=5); for Total cytochrome content, High dose: one-tenth of LD50; for Total cytochrome content, Low dose: one-thirtieth of LD50
CYP1A1/2 = details: read-out: IC50 for CYP1A1/2; human microsomes; cited from earlier work
CYP2B6 = details: read-out: IC50 for CYP2B6; human microsomes; cited from earlier work
CYP1A [3] = test: Inhibition of ethoxyresorufin O-deethylation; assay type: in vitro ADME; details: rat hepatic microsomes; for Concentration that evidently inhibited EROD: Fig. 2
CYP2D [4] = test: Hepatic microsomal BLH activity after oral administration for five days; details: five consecutive days, P≤0.05
CYP1A [5] = test: Hepatic microsomal EROD activity after oral administration for five days; details: five consecutive days, P≤0.05
CYP2C [6] = test: Hepatic microsomal TBH activity after oral administration for five days; details: five consecutive days, P≤0.05
CYP2C [7] = test: Inhibition of tolbutamide hydroxylation; assay type: in vitro ADME, rat; details: at 1,000 µM
CYP3A [8] = test: Inhibition of midazolam 4-hydroxylation; assay type: in vitro ADME, rat; details: at 1,000 µM
CYP2D [9] = test: Inhibition of bufuralol 1'-hydroxylation; assay type: in vitro ADME, rat; details: at 1,000 µM
CYP2C9 = details: read-out: IC50 for CYP2C9; human microsomes; cited from earlier work
CYP2C8 = details: read-out: IC50 for CYP2C8; human microsomes; cited from earlier work
CYP2D [10] = details: read-out: Km of bufuralol reported in rats; cited from earlier work
CYP1A [11] = details: read-out: Km of ethoxyresorufin reported in rats; cited from earlier work
CYP1A [12] = details: cited from earlier work
CYP3A [13] = details: read-out: Km of midazolam reported in rats; cited from earlier work
CYP2C [14] = details: read-out: Km of tolbutamide reported in rats; cited from earlier work
CYP = details: hen treated with tribufos; cited from earlier work

CCOP(=S)(OCC)Oc1nc(Cl)c(Cl)cc1Cl [Chlorpyrifos, chlorpyrifos]
IC50 (CYP2D6): ~3000 nM
Microsomal activity of MDZH compared with control group (CYP3A [1]): no significant effects
Acceptable daily intake (ADI) [2]: 0.001 mg/kg/day
Effect of oral treatment on total CYP content (cytochrome P450): significantly decreased
Total cytochrome content, High dose (cytochrome P450): 1.30 ± 0.48^a) nM/mg protein
Total cytochrome content, Low dose (cytochrome P450): 1.69 ± 0.18 nM/mg protein
IC50 (CYP1A1/2): ~3000 nM
IC50 (CYP2B6): 2500 nM
Manner of EROD inhibition (CYP1A [3]): noncompetitive
Concentration that evidently inhibited EROD (CYP1A [3]): less than 1 µM
Microsomal activity of BLH compared with control group (CYP2D [4]): no significant effects
Microsomal activity of EROD compared with control group (CYP1A [5]): no significant effects
Microsomal activity of TBH compared with control group (CYP2C [6]): no significant effects

COP(=O)(OC)OC=C(Cl)Cl [Dichlorvos, dichlorvos]
Inhibitory effect on TBH (CYP2C [7]): not evident
Microsomal activity of MDZH compared with control group (CYP3A [1]): no significant effects
Effect of oral treatment on total CYP content (cytochrome P450): not significantly affected
Total cytochrome content, High dose (cytochrome P450): 1.75 ± 0.18 nM/mg protein
Total cytochrome content, Low dose (cytochrome P450): 1.69 ± 0.40 nM/mg protein
Inhibitory effect on MDZH (CYP3A [8]): not evident
Inhibitory effect on BLH (CYP2D [9]): not evident
Microsomal activity of BLH compared with control group (CYP2D [4]): no significant effects
Microsomal activity of EROD compared with control group (CYP1A [5]): no significant effects
Microsomal activity of TBH compared with control group (CYP2C [6]): no significant effects

COP(=S)(OC)Oc1ccc([N+](=O)[O-])c(C)c1 [Fenitrothion, fenitrothion]
IC50 (CYP2C9): 4800 nM
Microsomal activity of MDZH compared with control group (CYP3A [1]): significantly lower
Acceptable daily intake (ADI) [2]: 0.005 mg/kg/day
Effect of oral treatment on total CYP content (cytochrome P450): not significantly affected
Total cytochrome content, High dose (cytochrome P450): 1.18 ± 0.23 nM/mg protein
Total cytochrome content, Low dose (cytochrome P450): 1.38 ± 0.51 nM/mg protein
IC50 (CYP1A1/2): ~3000 nM
IC50 (CYP2C8): 4300 nM
IC50 (CYP2B6): 2500 nM
Manner of EROD inhibition (CYP1A [3]): noncompetitive
Concentration that evidently inhibited EROD (CYP1A [3]): less than 1 µM
Microsomal activity of EROD compared with control group (CYP1A [5]): significantly lower
Microsomal activity of TBH compared with control group (CYP2C [6]): significantly higher

CCc1cccc2cc(C(O)CNC(C)(C)C)oc12 (stereo not shown) [bufuralol]
Km (CYP2D [10]): 6.4 µM

CCOc1ccc2nc3ccc(=O)cc-3oc2c1 [ethoxyresorufin]
Km (CYP1A [11]): 0.227 µM

CC1(C)C(C(=O)OC(C#N)c2cccc(Oc3ccccc3)c2)C1(C)C (stereo not shown) [fenpropathrin]
Effect on hepatic CYP1A (CYP1A [12]): potent inhibitor of CYP1A

CCOC(=O)CC(SP(=S)(OC)OC)C(=O)OCC (stereo not shown) [malathion]
IC50 (CYP2C9): 2500 nM

Cc1ncc2n1-c1ccc(Cl)cc1C(c1ccccc1F)=NC2 [midazolam]
Km (CYP3A [13]): 22 µM

CC1(C)C(C=C(Cl)Cl)C1C(=O)OCc1cccc(Oc2ccccc2)c1 (stereo not shown) [permethrin]
Effect on hepatic CYP1A (CYP1A [12]): potent inhibitor of CYP1A

CCOC(=O)C(SP(=S)(OC)OC)c1ccccc1 (stereo not shown) [phenthoate]
IC50 (CYP2D6): ~3000 nM

CCCSP(=O)(OCC)Oc1ccc(Br)cc1Cl (stereo not shown) [profenofos]
IC50 (CYP1A1/2): ~3000 nM

CCCCNC(=O)NS(=O)(=O)c1ccc(C)cc1 [tolbutamide]
Km (CYP2C [14]): 1910 µM

CCCCSP(=O)(SCCCC)SCCCC [tribufos, S,S,S-tri-n-butyl phosphorotrithioate]
Increase of CYP content in hepatic microsomes (CYP): 2–3 fold
